Assay results: ChEMBL document CHEMBL3885861, “Open TG-GATES”

Organism: Rattus norvegicus
Assay: Open TG-GATES - Regimen: Daily Repeat
Format: toxicity, organism-based, Sprague-Dawley
Set-up: regimen Daily Repeat, gender Male, age 6 weeks
Details: in vivo, po, 0 mg/kg, route gavage, dose level Control; for APTT / Bas / Eos / Fbg / Hb / Ht / Lym / MCH / MCHC / MCV / Mono / Neu / PT / Plat / RBC / Ret / WBC: tissue Blood; for KIDNEY_L / KIDNEY_R / KIDNEY_TOTAL: tissue Kidney; for LIVER: tissue Liver; for A/G / ALP / ALT / AST / BUN / CRE / Ca / Cl / DBIL / GLC / IP / K / LDH / Na / PL / RALB / TBIL / TC / TG / TP / gamma-GTP: tissue Plasma

SMILES: O=C(OC[C@H]1O[C@@H](OC(=O)c2cc(O)c(O)c(OC(=O)c3cc(O)c(O)c(O)c3)c2)[C@H](OC(=O)c2cc(O)c(O)c(OC(=O)c3cc(O)c(O)c(O)c3)c2)[C@@H](OC(=O)c2cc(O)c(O)c(OC(=O)c3cc(O)c(O)c(O)c3)c2)[C@@H]1OC(=O)c1cc(O)c(O)c(OC(=O)c2cc(O)c(O)c(O)c2)c1)c1cc(O)c(O)c(OC(=O)c2cc(O)c(O)c(O)c2)c1 [TANNIC ACID]
- TERMINAL_BW (72 h, time 3 day): 216 g
- APTT (72 h, time 3 day): 17.1 s
- Bas (72 h, time 3 day): 0%
- Eos (72 h, time 3 day): 1%
- Fbg (72 h, time 3 day): 245.4 mg/dL
- Hb (72 h, time 3 day): 13.2 g/dL
- Ht (72 h, time 3 day): 39.3%
- Lym (72 h, time 3 day): 77.6%
- MCH (72 h, time 3 day): 21.8 pg
- MCHC (72 h, time 3 day): 33.4%
- MCV (72 h, time 3 day): 65.2 fL
- Mono (72 h, time 3 day): 6.4%
- Neu (72 h, time 3 day): 15%
- PT (72 h, time 3 day): 11.7 s
- Plat (72 h, time 3 day): 118.4 x10_4/uL
- RBC (72 h, time 3 day): 603.8 x10_4/ul
- Ret (72 h, time 3 day): 8.3%
- WBC (72 h, time 3 day): 101.4 x10_2/uL
- KIDNEY_L (72 h, time 3 day): 0.9 g
- KIDNEY_R (72 h, time 3 day): 1 g
- KIDNEY_TOTAL (72 h, time 3 day): 1.9 g
- LIVER (72 h, time 3 day): 10.5 g
- A/G (72 h, time 3 day): 2.1
- ALP (72 h, time 3 day): 883.4 IU/L
- ALT (72 h, time 3 day): 36.2 IU/L
- AST (72 h, time 3 day): 62.2 IU/L
- BUN (72 h, time 3 day): 18 mg/dL
- CRE (72 h, time 3 day): 0.5 mg/dL
- Ca (72 h, time 3 day): 10.9 mg/dL
- Cl (72 h, time 3 day): 104.2 meq/L
- DBIL (72 h, time 3 day): 0 mg/dL
- GLC (72 h, time 3 day): 202 mg/dL
- IP (72 h, time 3 day): 8 mg/dL
- K (72 h, time 3 day): 4.8 meq/L
- LDH (72 h, time 3 day): 62.4 IU/L
- Na (72 h, time 3 day): 139.6 meq/L
- PL (72 h, time 3 day): 146.8 mg/dL
- RALB (72 h, time 3 day): 3.8 g/dL
- TBIL (72 h, time 3 day): 0.3 mg/dL
- TC (72 h, time 3 day): 75.2 mg/dL
- TG (72 h, time 3 day): 112.8 mg/dL
- TP (72 h, time 3 day): 5.7 g/dL
- gamma-GTP (72 h, time 3 day): 1 IU/L
- TERMINAL_BW ([…], time 7 day): 253.1 g
- TERMINAL_BW ([…], time 14 day): 306.2 g
- TERMINAL_BW ([…], time 28 day): 398.3 g
- APTT ([…], time 7 day): 16.7 s
- Bas ([…], time 7 day): 0%
- Eos ([…], time 7 day): 1%
- Fbg ([…], time 7 day): 219.4 mg/dL
- Hb ([…], time 7 day): 12.8 g/dL
- Ht ([…], time 7 day): 38.2%
- Lym ([…], time 7 day): 77.8%
- MCH ([…], time 7 day): 21.4 pg
- MCHC ([…], time 7 day): 33.5%
- MCV ([…], time 7 day): 63.9 fL
- Mono ([…], time 7 day): 6.8%
- Neu ([…], time 7 day): 14.4%
- PT ([…], time 7 day): 11.1 s
- Plat ([…], time 7 day): 101 x10_4/uL
- RBC ([…], time 7 day): 598 x10_4/ul
- Ret ([…], time 7 day): 6.8%
- WBC ([…], time 7 day): 131.8 x10_2/uL
- APTT ([…], time 14 day): 16 s
- Bas ([…], time 14 day): 0%
- Eos ([…], time 14 day): 1.2%
- Fbg ([…], time 14 day): 251.8 mg/dL
- Hb ([…], time 14 day): 13.9 g/dL
- Ht ([…], time 14 day): 41.6%
- Lym ([…], time 14 day): 78%
- MCH ([…], time 14 day): 20.7 pg
- MCHC ([…], time 14 day): 33.4%
- MCV ([…], time 14 day): 62.1 fL
- Mono ([…], time 14 day): 7%
- Neu ([…], time 14 day): 14%
- PT ([…], time 14 day): 11.5 s
- Plat ([…], time 14 day): 125.4 x10_4/uL
- RBC ([…], time 14 day): 669.8 x10_4/ul
- Ret ([…], time 14 day): 5.3%
- WBC ([…], time 14 day): 128.6 x10_2/uL
- APTT ([…], time 28 day): 17.3 s
- Bas ([…], time 28 day): 0%
- Eos ([…], time 28 day): 1%
- Fbg ([…], time 28 day): 229 mg/dL
- Hb ([…], time 28 day): 14.7 g/dL
- Ht ([…], time 28 day): 43.6%
- Lym ([…], time 28 day): 84%
- MCH ([…], time 28 day): 19.9 pg
- MCHC ([…], time 28 day): 33.7%
- MCV ([…], time 28 day): 59.2 fL
- Mono ([…], time 28 day): 5.2%
- Neu ([…], time 28 day): 9.8%
- PT ([…], time 28 day): 11.8 s
- Plat ([…], time 28 day): 112.4 x10_4/uL
- RBC ([…], time 28 day): 738.4 x10_4/ul
- Ret ([…], time 28 day): 2.8%
- WBC ([…], time 28 day): 144.2 x10_2/uL
- KIDNEY_L ([…], time 7 day): 1.1 g
- KIDNEY_R ([…], time 7 day): 1.1 g
- KIDNEY_TOTAL ([…], time 7 day): 2.2 g
- KIDNEY_L ([…], time 14 day): 1.2 g
- KIDNEY_R ([…], time 14 day): 1.2 g
- KIDNEY_TOTAL ([…], time 14 day): 2.4 g
- KIDNEY_L ([…], time 28 day): 1.4 g
- KIDNEY_R ([…], time 28 day): 1.4 g
- KIDNEY_TOTAL ([…], time 28 day): 2.7 g
- LIVER ([…], time 7 day): 12.3 g
- LIVER ([…], time 14 day): 14.2 g
- LIVER ([…], time 28 day): 17.9 g
- A/G ([…], time 7 day): 1.7
- ALP ([…], time 7 day): 813.4 IU/L
- ALT ([…], time 7 day): 34.4 IU/L
- AST ([…], time 7 day): 60.6 IU/L
- BUN ([…], time 7 day): 19 mg/dL
- CRE ([…], time 7 day): 0.4 mg/dL
- Ca ([…], time 7 day): 10.8 mg/dL
- Cl ([…], time 7 day): 103.2 meq/L
- DBIL ([…], time 7 day): 0.006 mg/dL
- GLC ([…], time 7 day): 205.2 mg/dL
- IP ([…], time 7 day): 8.1 mg/dL
- K ([…], time 7 day): 4.4 meq/L
- LDH ([…], time 7 day): 57 IU/L
- Na ([…], time 7 day): 137.8 meq/L
- PL ([…], time 7 day): 160.2 mg/dL
- RALB ([…], time 7 day): 3.6 g/dL
- TBIL ([…], time 7 day): 0.4 mg/dL
- TC ([…], time 7 day): 85.4 mg/dL
- TG ([…], time 7 day): 119.6 mg/dL
- TP ([…], time 7 day): 5.7 g/dL
- gamma-GTP ([…], time 7 day): 1 IU/L
- A/G ([…], time 14 day): 1.8
- ALP ([…], time 14 day): 806.2 IU/L
- ALT ([…], time 14 day): 31.2 IU/L
- AST ([…], time 14 day): 58.8 IU/L
- BUN ([…], time 14 day): 18.4 mg/dL
- CRE ([…], time 14 day): 0.6 mg/dL
- Ca ([…], time 14 day): 10.7 mg/dL
- Cl ([…], time 14 day): 103.8 meq/L
- DBIL ([…], time 14 day): 0.018 mg/dL
- GLC ([…], time 14 day): 198 mg/dL
- IP ([…], time 14 day): 7.8 mg/dL
- K ([…], time 14 day): 4.6 meq/L
- LDH ([…], time 14 day): 81 IU/L
- Na ([…], time 14 day): 139.6 meq/L
- PL ([…], time 14 day): 140.2 mg/dL
- RALB ([…], time 14 day): 3.8 g/dL
- TBIL ([…], time 14 day): 0.3 mg/dL
- TC ([…], time 14 day): 70.2 mg/dL
- TG ([…], time 14 day): 115.2 mg/dL
- TP ([…], time 14 day): 5.9 g/dL
- gamma-GTP ([…], time 14 day): 1 IU/L
- A/G ([…], time 28 day): 1.8
- ALP ([…], time 28 day): 563.4 IU/L
- ALT ([…], time 28 day): 29.4 IU/L
- AST ([…], time 28 day): 56.8 IU/L
- BUN ([…], time 28 day): 20.4 mg/dL
- CRE ([…], time 28 day): 0.6 mg/dL
- Ca ([…], time 28 day): 11 mg/dL
- Cl ([…], time 28 day): 105.4 meq/L
- DBIL ([…], time 28 day): 0.006 mg/dL
- GLC ([…], time 28 day): 221.4 mg/dL
- IP ([…], time 28 day): 7.1 mg/dL
- K ([…], time 28 day): 4.4 meq/L
- LDH ([…], time 28 day): 63.6 IU/L
- Na ([…], time 28 day): 139.6 meq/L
- PL ([…], time 28 day): 152.6 mg/dL
- RALB ([…], time 28 day): 3.9 g/dL
- TBIL ([…], time 28 day): 0.2 mg/dL
- TC ([…], time 28 day): 73.6 mg/dL
- TG ([…], time 28 day): 141.4 mg/dL
- TP ([…], time 28 day): 6.2 g/dL
- gamma-GTP ([…], time 28 day): 0.6 IU/L
